One assay concerns the target human orexin-2 receptor (Homo sapiens (Human), UniProt O43614). In words: FLIPR Ca2+ Flux Assay, orexin-2 receptor (hOX2R FLIPR). The format is cell-based. The following applies: CHO cells expressing the human orexin-2 receptor; agonist 70 pM Ala-6,12 human orexin-A. On the procedure:
(§1) The utility of the compounds in accordance with the present invention as orexin receptor OX1R and/or OX2R antagonists may be readily determined without undue experimentation by methodology well known in the art, including the “FLIPR Ca^2+ Flux Assay” (Okumura et al., Biochem. Biophys. Res. Comm. 280:976-981, 2001). In a typical experiment the OX1 and OX2 receptor antagonistic activity of the compounds of the present invention was determined in accordance with the following experimental method. For intracellular calcium measurements, Chinese hamster ovary (CHO) cells expressing the rat orexin-1 receptor or the human orexin-2 receptor, are grown in Iscove's modified DMEM containing 2 mM L-glutamine, […], 1% hypoxanthine-thymidine supplement, 100 U/ml penicillin, 100 μg/ml streptomycin and 10% heat-inactivated fetal calf serum (FCS). The cells are seeded at 20,000 cells/well into Becton-Dickinson black 384-well clear bottom sterile plates coated with poly-D-lysine. All reagents were from GIBCO-Invitrogen Corp. The seeded plates are incubated overnight at 37° C. and 5% CO2. Ala-6,12 human orexin-A as the agonist is prepared as a 1 mM stock solution in 1% bovine serum albumin (BSA) and diluted in assay buffer (HBSS containing 20 mM HEPES, 0.1% BSA and 2.5 mM probenecid, pH7.4) for use in the assay at a final concentration of 70 pM. Test compounds are prepared as 10 mM stock solution in DMSO, then diluted in 384-well plates, first in DMSO, then assay buffer. On the day of the assay, cells are washed 3 times with 100 μl assay buffer and then incubated for 60 min (37° C., 5% CO2) in 60 μl assay buffer containing 1 μM Fluo-4AM ester, 0.02% pluronic acid, and 1% BSA. The dye loading solution is then aspirated and cells are washed 3 times with 100 μl assay buffer. 30 μl of that same buffer is left in each well. Within the Fluorescent Imaging Plate Reader (FLIPR, Molecular Devices), test compounds are added to the plate in a volume of 25 μl, incubated for 5 min and finally 25 μl of agonist is added. Fluorescence is measured for each well at 1 second intervals for 5 minutes and the height of each fluorescence peak is compared to the height of the fluorescence peak induced by 70 pM Ala-6,12 orexin-A with buffer in place of antagonist. For each antagonist, IC50 value (the concentration of compound needed to inhibit 50% of the agonist response) is determined. Alternatively, compound potency can be assessed by a radioligand binding assay (described in Bergman et. al. Bioorg. Med. Chem. Lett. 2008, 18, 1425-1430) in which the inhibition constant (Ki) is determined in membranes prepared from CHO cells expressing either the OX1 or OX2 receptor. The intrinsic orexin receptor antagonist activity of a compound which may be used in the present invention may be determined by these assays.
On the technique in general: Calcium flux is commonly read through the fluorescence of an indicator in the cells.

In assay [1] the target is hOXIR (orexin-1 receptor) (Homo sapiens, UniProt O43613). In words: FLIPR Ca2+ Flux Assay, orexin-1 receptor (hOXIR FLIPR). Format: cell-based. The following applies: CHO cells expressing the orexin-1 receptor (method text: rat; table head: hOXIR); agonist 70 pM Ala-6,12 human orexin-A. As to the method:
as §1

For orientation: IC50 means the point on the concentration scale where inhibition reaches its midpoint.

Sequence of human orexin-2 receptor (O43614 whole entry): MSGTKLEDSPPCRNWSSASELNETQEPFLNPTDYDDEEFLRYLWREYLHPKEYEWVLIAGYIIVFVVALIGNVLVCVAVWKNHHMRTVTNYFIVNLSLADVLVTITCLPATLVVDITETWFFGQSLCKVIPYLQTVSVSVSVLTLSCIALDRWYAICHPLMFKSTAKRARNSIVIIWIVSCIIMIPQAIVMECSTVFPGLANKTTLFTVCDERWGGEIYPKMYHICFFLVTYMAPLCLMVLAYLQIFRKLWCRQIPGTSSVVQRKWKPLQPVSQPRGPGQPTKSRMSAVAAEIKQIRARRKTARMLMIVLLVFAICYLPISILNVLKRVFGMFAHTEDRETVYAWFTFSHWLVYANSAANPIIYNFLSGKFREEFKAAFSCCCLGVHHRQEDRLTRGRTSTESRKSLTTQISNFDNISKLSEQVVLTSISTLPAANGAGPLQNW

Regarding `C[C@@H]1CC[C@@H](n2ncc(C(C)(C)O)n2)CN1C(=O)c1ccccc1-n1nccn1` [Example 25, (2-(2H-1,2,3-triazol-2-yl)phenyl)((2R,5R)-5-(4-(2-hydroxypropan-2-yl)-2H-1,2,3-triazol-2-yl)-2-methylpiperidin-1-yl)methanone], the results for the IC50 (on human orexin-2 receptor; in assay [1]) were 7.5 nM and 594 nM, respectively.
On the same counts, the results for `C[C@@H]1CC[C@@H](n2ncc([C@H](O)C(F)(F)F)n2)CN1C(=O)c1ccccc1-n1nccn1` [Example 26, (2-(2H-1,2,3-triazol-2-yl)phenyl) ((2R,5R)-2-methyl-5-(4-((S)-2,2,2-trifluoro-1-hydroxyethyl)-2H-1,2,3-triazol-2-yl)piperidin-1-yl)methanone] are 86.7 nM and more than 10000 nM.
On the same counts, the results for `C[C@@H]1CC[C@@H](n2ncc([C@@H](O)C(F)(F)F)n2)CN1C(=O)c1ccccc1-n1nccn1` [Example 27, (2-(2H-1,2,3-triazol-2-yl)phenyl)((2R,5R)-2-methyl-5-(4-((R)-2,2,2-trifluoro-1-hydroxyethyl)-2H-1,2,3-triazol-2-yl)piperidin-1-yl)methanone] are 17.9 nM and 505 nM.
On the same counts, the results for `C[C@@H]1CC[C@@H](n2ncc(-c3ccccc3)n2)CN1C(=O)c1ccccc1-n1nccn1` [Example 28, (2-(2H-1,2,3-triazol-2-yl)phenyl)((2R,5R)-2-methyl-5-(4-phenyl-2H-1,2,3-triazol-2-yl)piperidin-1-yl)methanone] are 69.7 nM and 54 nM.
Regarding `C[C@@H]1CC[C@@H](n2ncc(Br)n2)CN1C(=O)c1ccccc1-n1nccn1` [Example 29, (2-(2H-1,2,3-triazol-2-yl)phenyl)((2R,5R)-5-(4-bromo-2H-1,2,3-triazol-2-yl)-2-methylpiperidin-1-yl)methanone], the IC50 at human orexin-2 receptor was 362 nM; in assay [1] it was more than 10000 nM.
Consider `Cc1nc(-c2ccc(F)cc2C(=O)N2C[C@H](n3ncc(C(C)(C)O)n3)CC[C@H]2C)no1` [Example 30, (5-Fluoro-2-(5-methyl-1,2,4-oxadiazol-3-yl)phenyl)((2R,5R)-5-(4-(2-hydroxypropan-2-yl)-2H-1,2,3-triazol-2-yl)-2-methylpiperidin-1-yl)methanone], for which the IC50 on human orexin-2 receptor is 138 nM; in assay [1], more than 10000 nM.
For `C[C@@H]1CC[C@@H](n2ncc(C(C)(C)O)n2)CN1C(=O)c1cccc(F)c1-n1nccn1` [Example 31, 2-{2-[(3R,6R)-1-{[3-fluoro-2-(2H-1,2,3-triazol-2-yl)phenyl]carbonyl}-6-methylpiperidin-3-yl]-2H-1,2,3-triazol-4-yl}propan-2-ol], in that order: 36.4 nM and more than 10000 nM.
For `C[C@@H]1CC[C@@H](n2ncc(C(C)(C)O)n2)CN1C(=O)c1sccc1-n1nccn1` [Example 32, 2-{2-[(3R,6R)-6-methyl-1-{[3-(2H-1,2,3-triazol-2-yl)thiophen-2-yl]carbonyl}piperidin-3-yl]-2H-1,2,3-triazol-4-yl}propan-2-ol], in that order: 89.6 nM and more than 10000 nM.
On the same counts, the results for `C[C@@H]1CC[C@@H](n2ncc(C(C)(C)O)n2)CN1C(=O)c1ccsc1-n1nccn1` [Example 33, 2-{2-[(3R,6R)-6-methyl-1-{[2-(2H-1,2,3-triazol-2-yl)thiophen-3-yl]carbonyl}piperidin-3-yl]-2H-1,2,3-triazol-4-yl}propan-2-ol] are 18.4 nM and 2560 nM.
Consider `C[C@@H]1CC[C@@H](n2ncc(C(C)(C)O)n2)CN1C(=O)c1ccccc1-n1ncnn1` [Example 34, 2-{2-[(3R,6R)-6-methyl-1-{[2-(2H-tetrazol-2-yl)phenyl]carbonyl}piperidin-3-yl]-2H-1,2,3-triazol-4-yl}propan-2-ol], for which the IC50 was 36.8 nM on human orexin-2 receptor and more than 10000 nM in assay [1].
For `Cc1noc(-c2ccc(F)cc2C(=O)N2C[C@H](n3ncc(C(C)(C)O)n3)CC[C@H]2C)n1` [Example 35, 2-{2-[(3R,6R)-1-{[5-fluoro-2-(3-methyl-1,2,4-oxadiazol-5-yl)phenyl]carbonyl}-6-methylpiperidin-3-yl]-2H-1,2,3-triazol-4-yl}propan-2-ol], in that order: 593 nM and more than 10000 nM.
On the same counts, the results for `Cc1noc(-c2ccccc2C(=O)N2C[C@H](n3ncc(C(C)(C)O)n3)CC[C@H]2C)n1` [Example 36, 2-{2-[(3R,6R)-6-methyl-1-{[2-(3-methyl-1,2,4-oxadiazol-5-yl)phenyl]carbonyl}piperidin-3-yl]-2H-1,2,3-triazol-4-yl}propan-2-ol] are 62.9 nM and more than 10000 nM.
On the same counts, the results for `Cc1nc(-c2c(F)cccc2C(=O)N2C[C@H](n3ncc(C(C)(C)O)n3)CC[C@H]2C)no1` [Example 37, 2-{2-[(3R,6R)-1-{[3-fluoro-2-(5-methyl-1,2,4-oxadiazol-3-yl)phenyl]carbonyl}-6-methylpiperidin-3-yl]-2H-1,2,3-triazol-4-yl}propan-2-ol] are 75.2 nM and more than 10000 nM.
Turning to `C[C@@H]1CC[C@@H](n2ncc(C(C)(C)O)n2)CN1C(=O)c1cc(F)ccc1-n1nccn1` [Example 38, 2-{2-[(3R,6R)-1-{[5-fluoro-2-(2H-1,2,3-triazol-2-yl)phenyl]carbonyl}-6-methylpiperidin-3-yl]-2H-1,2,3-triazol-4-yl}propan-2-ol], the IC50 at human orexin-2 receptor was 27.5 nM; in assay [1], more than 10000 nM.
Consider `C[C@@H]1CC[C@@H](n2ncc(C(C)(C)O)n2)CN1C(=O)c1ccc(F)cc1-n1nccn1` [Example 39, 2-{2-[(3R,6R)-1-{[4-fluoro-2-(2H-1,2,3-triazol-2-yl)phenyl]carbonyl}-6-methylpiperidin-3-yl]-2H-1,2,3-triazol-4-yl}propan-2-ol], for which the IC50 is 27.1 nM on human orexin-2 receptor and more than 10000 nM in assay [1].
For `Cc1nc(-c2cc(F)ccc2C(=O)N2C[C@H](n3ncc(C(C)(C)O)n3)CC[C@H]2C)no1` [Example 40, 2-{2-[(3R,6R)-1-{[4-fluoro-2-(5-methyl-1,2,4-oxadiazol-3-yl)phenyl]carbonyl}-6-methylpiperidin-3-yl]-2H-1,2,3-triazol-4-yl}propan-2-ol], in that order: 86.7 nM and more than 10000 nM.
For `Cc1noc(-c2cc(F)ccc2C(=O)N2C[C@H](n3ncc(C(C)(C)O)n3)CC[C@H]2C)n1` [Example 41, 2-{2-[(3R,6R)-1-{[4-fluoro-2-(3-methyl-1,2,4-oxadiazol-5-yl)phenyl]carbonyl}-6-methylpiperidin-3-yl]-2H-1,2,3-triazol-4-yl}propan-2-ol], in that order: 173 nM and more than 10000 nM.
On the same counts, the results for `C[C@@H]1CC[C@@H](n2ncc(C(C)(C)O)n2)CN1C(=O)c1nccnc1-c1ccccn1` [Example 42, 2-(2-{(3R,6R)-6-methyl-1-[(3-pyridin-2-ylpyrazin-2-yl)carbonyl]piperidin-3-yl}-2H-1,2,3-triazol-4-yl)propan-2-ol] are 622 nM and more than 10000 nM.
For the molecule `C[C@@H]1CC[C@@H](n2ncc(C(C)(C)O)n2)CN1C(=O)c1nccnc1-n1cccn1` [Example 43, 2-{2-[(3R,6R)-6-methyl-1-{[3-(1H-pyrazol-1-yl)pyrazin-2-yl]carbonyl}piperidin-3-yl]-2H-1,2,3-triazol-4-yl}propan-2-ol], the IC50 is 109 nM on human orexin-2 receptor and more than 10000 nM in assay [1].
Turning to `COCCc1ccccc1C(=O)N1C[C@H](n2ncc(C(C)(C)O)n2)CC[C@H]1C` [Example 44, 2-{2-[(3R,6R)-1-{[2-(2-methoxyethyl)phenyl]carbonyl}-6-methylpiperidin-3-yl]-2H-1,2,3-triazol-4-yl}propan-2-ol], the values for the IC50 (on human orexin-2 receptor; in assay [1]) were 897 nM and more than 10000 nM, respectively.
For `COc1ccc(C(=O)N2C[C@H](n3ncc(C(C)(C)O)n3)CC[C@H]2C)c(-n2nccn2)n1` [Example 45, 2-{2-[(3R,6R)-1-{[6-methoxy-2-(2H-1,2,3-triazol-2-yl)pyridin-3-yl]carbonyl}-6-methylpiperidin-3-yl]-2H-1,2,3-triazol-4-yl}propan-2-ol], in that order: 51.4 nM and more than 10000 nM.
For `Cc1cccc(C(=O)N2C[C@H](n3ncc(C(C)(C)O)n3)CC[C@H]2C)c1-n1nccn1` [Example 46], in that order: 56.4 nM and more than 10000 nM.

Values taken from patent publication US10010539B2, “Pyrazole, triazole and tetrazole orexin receptor antagonists” (MERCK SHARP & DOHME CORP., priority 2014, dated 2018).
